Assay results reported in ChEMBL document CHEMBL1128975, “The effect of fluorine substitution on the antimalarial activity of tebuquine” (Bioorg Med Chem Lett, 1996).

How the values were obtained:
Plasmodium falciparum [1] = experiment: Antimalarial activity against Plasmodium falciparum K1; format: functional, organism-based
Plasmodium falciparum [2] = experiment: Antimalarial activity against Plasmodium falciparum 3D7; format: functional, organism-based

## CC(C)(C)NCc1cc(Nc2ccnc3cc(Cl)ccc23)cc(-c2ccc(Cl)cc2)c1F [FLOUROTEBUQUINE]
Plasmodium falciparum [1]
  IC50: 74 nM
Plasmodium falciparum [2]
  IC50: 58 nM

## CC(C)(C)NCc1cc(Nc2ccnc3cc(Cl)ccc23)cc(-c2ccc(Cl)cc2)c1O [TEBUQUINE]
Plasmodium falciparum [1]
  IC50: 21 nM
Plasmodium falciparum [2]
  IC50: 18 nM
